One assay has as its system sugarcane variety Q165. Put plainly: RNAseq expression analysis of leaves before and after probenazole treatment. In kind it is in vivo. Conditions: 8% Oryzemate granules, 20 g/4 liters of soil, about 60 days after planting, selected gene. The source says:
In Example 1, at the outset, a sugarcane variety Q165 was subjected to drug treatment with probenazole (8% Oryzemate granules, Meiji Seika Pharma Co., Ltd., 20 g/4 liters of soil) approximately 60 days after it had been planted. The leaves that had expanded from the top were sampled before and after the treatment, and total RNA was extracted using the RNeasy Plant Mini Kit (QIAGEN).
Subsequently, the obtained total RNA was subjected to RNAseq expression analysis (Illumina HiSeq Sequencing, both-ends analysis), so as to obtain read data set. With the use of the assembler (Velvet version 1.2.08), the read data were reassembled into contig sequence information. The contig sequence information resulting from such reassembly was compared with each RNA sequence, and mapping data were obtained using a mapping program (Bowtie version 1.0.0). The resulting data were designated as the original data for RNAseq analysis.
On the basis of the EST sequence, two types of gene expression regulatory DNAs located in the 5′ upstream region of the selected gene were obtained by the Straight Walk method developed by BEX Co., Ltd. Such gene expression regulatory DNAs are drug-inducible promoters whose transcription activity is activated in the presence of a drug, such as probenazole. […]

The test system of assay [1] is drug-inducible promoters, tp1 and tp2. The experiment in a line: Real-time PCR of RNA levels in recombinants carrying tp1 or tp2 expression vectors, with and without probenazole treatment. In kind it is in vivo, sugarcane variety Q165. Conditions: Recombinants 1 to 8; Oryzemate granules (8% probenazole), 20 g/4 liters of soil; leaves sampled 0, 7 and 14 days after treatment; FIG. 7. On the procedure: In Example 2, transcription promoting activity of the two types of drug-inducible promoters, tp1 and tp2, isolated in Example 1 was examined in the presence and in the absence of probenazole.
With the use of the tp1-carrying expression vector and the tp2-carrying expression vector constructed in the manner described above, Recombinants 1 to 8 were prepared. Recombinants 1 to 7 were prepared with the use of the tp1-carrying expression vector, and Recombinant 8 was prepared with the use of the tp2-carrying expression vector.
Recombinants 1 to 8 prepared in the manner described above were treated with Oryzemate granules (8% probenazole, Meiji Seika Pharma Co., Ltd., 20 g/4 liters of soil), and leaves were sampled therefrom 0 days after drug treatment (i.e., immediately before the treatment), 7 days after drug treatment, and 14 days after drug treatment. The RNA levels of the recombinants were quantified using the AB17500 real-time PCR apparatus (Applied BioSystems) in accordance with the SYBR Green method. A comparative example shown in FIG. 7 concerns a recombinant prepared with the use of ecc0002-Hd3a-pIG121-Hm. The control example shown in FIG. 7 concerns the Q165 wild-type sugarcane variety.
A general note: Real-time PCR tracks product formation cycle by cycle.

Where only a bound is given, the exact number is not on record here.

`C=CCOC1=NS(=O)(=O)c2ccccc21` [probenazole]: the “increase in expression levels of EST sequence, drug treatment group versus non-treatment group” value with sugarcane variety Q165 is reported as ≥ 100 fold. Also, the “degree of gene expression induction” value in assay [1] is recorded as ≥ 3 times.

Values taken from US10968457B2, “Drug-inducible promoter and method of inducting gene expression using the same” (TOYOTA JIDOSHA KABUSHIKI KAISHA, priority 2015, dated 2021).
